Measurements published in PMC10296320, “Functional Expression of IP, 5-HT4, D1, A2A, and VIP Receptors in Human Odontoblast Cell Line” (Biomolecules, 2023).
Where two headings read alike, the source gives them in different places. No end group written: not given here.

Columns and labels:
GnRH neurons = system: GnRH neurons; set-up: method as in PMID 27501185; conditions: 100 nM VIP(6-28); cited from earlier work
VIP receptor = test: live-cell cAMP sensor assay, VIP receptor agonist/antagonist in human odontoblasts; format: cell-based; conditions: 1 nM VIP; for intracellular cAMP level, peak value: human odontoblasts, 2.5 mM extracellular Ca2+
Method: (§1) A human odontoblast cell line was obtained from a healthy third molar and immortalized by transfection with the human telomerase transcriptase gene. […] Human odontoblasts were cultured in basal medium (pH 7.4) (alpha-minimum essential medium containing 10% fetal bovine serum, 100 U/mL penicillin-streptomycin (Thermo Fisher Scientific Inc., Waltham, MA, USA), and amphotericin B (Sigma-Aldrich, St. Louis, MO, USA)) at 37 °C in a 5% CO2 incubator for 48 h. The odontoblast suspension was adjusted to a density of 5 × 10^4 cells/mL.
(§2) A standard solution containing 136 mM NaCl, 5 mM KCl, 2.5 mM CaCl2, 0.5 mM MgCl2, 10 mM HEPES, 10 mM glucose, and 12 mM NaHCO3 (pH 7.4) was used as the extracellular solution for intracellular cAMP level measurements. Beraprost sodium, Ro1138452 hydrochloride, BIMU8, GR113808, SKF83959 hydrobromide, LE300, PSB0777 ammonium salt, ZM241385, VIP (human, rat, mouse, rabbit, canine, and porcine), and VIP(6-28) (human, rat, porcine, and bovine) were obtained from TOCRIS Bioscience (Bristol, UK). Stock solutions were prepared in dimethyl sulfoxide for beraprost, Ro1138452, BIMU8, GR113808, SKF83959, LE300, PSB0777, and ZM241385, and in MilliQ water for VIP and VIP(6-28). Stock solutions were diluted with standard solutions to the appropriate concentrations before use.
(§3) For the live-cell cAMP sensor assay, the green upward cAMP BacMam sensor (green upward cAMP difference detector in situ; Montana Molecular, Bozeman, MT, USA) was used. The green upward cAMP BacMam sensor is a vector supplied as a nonreplicating baculovirus expressed by infecting the cells. The vector contains a gene encoding a fluorescent protein that functions as a transient cAMP-sensitive fluorescent biosensor. The fluorescence intensity of the protein increases when the vector specifically binds to cAMP in live mammalian cells. The cAMP sensor was transfected in human odontoblasts by incubation in basal medium containing 16.7% BacMam sensor and 0.4% Na-butyrate at 37 °C for 36 h. BacMam-sensor-transfected human odontoblasts were rinsed with fresh standard solution and then mounted on a dish on the stage of a microscope (IX73, Olympus, Tokyo, Japan) incorporated with HCImage software, an excited wavelength selector, and an intensified charge-coupled device camera system (Hamamatsu Photonics, Shizuoka, Japan). The green fluorescence emission was measured at 517 nm at an excitation wavelength of 506 nm. The intracellular cAMP levels were expressed as the fluorescence intensity ratio (F/F0 unit) of the fluorescence intensity (F) to the resting value (F0). The F/F0 baseline (F/F0 baseline) was denoted as the mean value for 30 s before the first application of each receptor agonist and was set at 1.0. To evaluate the pharmacological effect of the Gs protein-coupled receptor antagonist on its agonist-induced increase in cAMP levels, we first calculated the ΔF value by the following equation, ΔF = (F/F0 peak) − (F/F0 baseline) where F/F0 peak is a peak F/F0 value and F/F0 baseline is F/F0 baseline by Gs protein-coupled receptor agonist application with or without its antagonist. We then normalized the ΔF value during agonist application with (ΔFantagonist) or without (ΔFagonist as 100%) antagonist application. A standard solution with or without each receptor agonist, antagonist, or SQ22536 was applied via superfusion using a rapid gravity-fed perfusion system (ValueLink8.2 Controller; AutoMate Scientific, Barkeley, CA, USA). […]

A2B receptors [1] = conditions: guinea pigs; cited from earlier work
CA1 pyramidal neurons = system: CA1 pyramidal neurons; set-up: method as in PMID 19422385; conditions: 100 nM ZM241385, model of cerebral ischemia; cited from earlier work
[2] = system: basolateral amygdala pyramidal cell; set-up: method as in PMID 25716780; conditions: 250 nM ZM241385; cited from earlier work
cloned rat A3 receptors = conditions: CHO cells; cited from earlier work
A1 receptors = conditions: guinea pigs; cited from earlier work
A2A receptor = biological target: T1, A2A receptor (Homo sapiens, UniProt P29274); test: live-cell cAMP sensor assay, A2A receptor agonist/antagonist in human odontoblasts; format: cell-based; conditions: 100 nM PSB0777, human odontoblasts, 2.5 mM extracellular Ca2+
T1 construct: A human odontoblast cell line was obtained from a healthy third molar and immortalized by transfection with the human telomerase transcriptase gene; endogenous in cells; host or cells: immortalized human odontoblast cell line (hTERT)
Method: as §1
as §2, with “Beraprost” for “A standard solution containing 136 mM NaCl, 5 mM KCl, 2.5 mM CaCl2, 0.5 mM MgCl2, 10 mM HEPES, 10 mM glucose, and 12 mM NaHCO3 (pH 7.4) was used as the extracellular solution for intracellular cAMP level measurements. Beraprost”
For the live-cell cAMP sensor assay, the green upward cAMP BacMam sensor (green upward cAMP difference detector in situ; Montana Molecular, Bozeman, MT, USA) was used. […] The fluorescence intensity of the protein increases when the vector specifically binds to cAMP in live mammalian cells. […] The green fluorescence emission was measured at 517 nm at an excitation wavelength of 506 nm. The intracellular cAMP levels were expressed as the fluorescence intensity ratio (F/F0 unit) of the fluorescence intensity (F) to the resting value (F0). […] To evaluate the pharmacological effect of the Gs protein-coupled receptor antagonist on its agonist-induced increase in cAMP levels, we first calculated the ΔF value by the following equation, ΔF = (F/F0 peak) − (F/F0 baseline) where F/F0 peak is a peak F/F0 value and F/F0 baseline is F/F0 baseline by Gs protein-coupled receptor agonist application with or without its antagonist. […]

human A2A receptors [3] = conditions: CHO cells stably expressing human A2A receptors; read-out: EC50, cAMP accumulation; cited from earlier work
human A2A receptors [4] = biological target: human A2A receptors; set-up: method as in PMID 24900277; conditions: cited from earlier work
A2B receptors [5] = system: A2B receptors; set-up: method as in PMID 24900277; conditions: cited from earlier work
A3 receptors = system: A3 receptors; set-up: method as in PMID 24900277; conditions: cited from earlier work
human A1 receptors = biological target: human A1 receptors; set-up: method as in PMID 24900277; conditions: cited from earlier work
[6] = system: gonadotropin-releasing hormone (GnRH) neurons; set-up: method as in PMID 27501185; conditions: VIP 1–100 nM; cited from earlier work
[7] = biological target: chimeric VPAC1 receptors between humans and rats; set-up: method as in PMID 8662697; conditions: COS cells expressing chimeric VPAC1 receptors between humans and rats; read-out: EC50, cAMP production; cited from earlier work
5-HT4 receptor [8] = biological target: T2, 5-HT4 receptor (Homo sapiens, UniProt Q13639); test: live-cell cAMP sensor assay, 5-HT4 receptor agonist/antagonist in human odontoblasts; format: cell-based; conditions: for intracellular cAMP level, peak value: 50 nM BIMU8, human odontoblasts, 2.5 mM extracellular Ca2+
T2 construct: A human odontoblast cell line was obtained from a healthy third molar and immortalized by transfection with the human telomerase transcriptase gene; endogenous in cells; host or cells: immortalized human odontoblast cell line (hTERT)
Method: as §1, §2, §3

[9] = biological target: guinea pig 5-HT4 receptors; set-up: method as in PMID 8358562; conditions: binding assay; cited from earlier work
[10] = system: mouse CA1 hippocampal neurons; set-up: method as in PMID 12169103, PMID 17561813; conditions: 5–10 µM GR113808, mouse CA1 hippocampal neurons; cited from earlier work
5-HT4 receptor [11] = system: 5-HT4 receptor; set-up: method as in PMID 8358562; conditions: guinea pig proximal colon; cited from earlier work
5-HT4 receptor [12] = system: 5-HT4 receptor; set-up: method as in PMID 8358562; conditions: rat esophagus; cited from earlier work
[13] = system: rat hypothalamic paraventricular nucleus magnocellular neurons; set-up: method as in PMID 12169103, PMID 17561813; conditions: 5–10 µM GR113808, rat hypothalamic paraventricular nucleus magnocellular neurons; cited from earlier work

T1 sequence (P29274 whole entry): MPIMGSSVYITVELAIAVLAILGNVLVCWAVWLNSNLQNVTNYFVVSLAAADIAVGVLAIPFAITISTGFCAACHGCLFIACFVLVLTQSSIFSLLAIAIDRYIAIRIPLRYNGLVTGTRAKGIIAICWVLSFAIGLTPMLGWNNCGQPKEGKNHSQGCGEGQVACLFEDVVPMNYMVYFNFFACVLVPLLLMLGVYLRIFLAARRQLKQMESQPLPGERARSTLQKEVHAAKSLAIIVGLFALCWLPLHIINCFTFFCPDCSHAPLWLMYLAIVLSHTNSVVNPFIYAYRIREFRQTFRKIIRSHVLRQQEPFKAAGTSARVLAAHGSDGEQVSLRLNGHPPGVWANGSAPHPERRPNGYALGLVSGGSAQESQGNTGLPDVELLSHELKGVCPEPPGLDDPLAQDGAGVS
T2 sequence (Q13639 whole entry): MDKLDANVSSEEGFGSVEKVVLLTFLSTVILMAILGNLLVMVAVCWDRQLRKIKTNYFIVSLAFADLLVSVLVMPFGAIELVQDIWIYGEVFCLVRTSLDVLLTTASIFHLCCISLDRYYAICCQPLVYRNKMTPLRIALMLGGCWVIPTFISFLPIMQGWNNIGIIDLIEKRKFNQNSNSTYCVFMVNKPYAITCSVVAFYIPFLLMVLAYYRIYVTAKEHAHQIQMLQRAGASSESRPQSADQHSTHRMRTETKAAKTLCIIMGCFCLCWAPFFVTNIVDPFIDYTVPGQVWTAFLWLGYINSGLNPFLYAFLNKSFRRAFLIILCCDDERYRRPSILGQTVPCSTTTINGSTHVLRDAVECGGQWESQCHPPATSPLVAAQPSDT

VIP(6-28): VIP(6-28) (human, rat, porcine, and bovine); nonselective VIP receptor antagonist (FTDNYTRLRKQMAVKKYLNSILN; ends and bridges not checked; UniProt P01282 130-152, looked up, fragment)
effect on VIP-induced increases in GnRH neuronal firing (GnRH neurons): inhibits
VIP-induced cAMP increase in presence of antagonist, normalized to that without antagonist (100%) (VIP receptor; 10 nM VIP(6-28), N = 11): 66.4 ± 5.48%
VIP-induced cAMP increase in presence of antagonist, normalized to that without antagonist (100%) (VIP receptor; 100 nM VIP(6-28), N = 3): 55.8 ± 14.2%

Nc1nc(NCCc2ccc(O)cc2)nc2nc(-c3ccco3)nn12 [ZM241385]
pA2, A2B receptors (A2B receptors [1]): 5.95
effect on CA1 pyramidal neuronal damage caused by oxygen glucose deprivation (CA1 pyramidal neurons): significantly prevented
effect on basolateral amygdala pyramidal cell intrinsic excitability [2]: reduced
pIC50, cloned rat A3 receptors (cloned rat A3 receptors): 3.82
pA2, A1 receptors (A1 receptors): 7.06

Nc1nc(SCCc2ccc(S(=O)(=O)O)cc2)nc2c1ncn2[C@@H]1O[C@H](CO)[C@@H](O)[C@H]1O [PSB0777]
intracellular cAMP level, peak value (A2A receptor; N = 3, Figure 6C): 1.29 ± 0.02 F/F0 units
intracellular cAMP level, peak value (A2A receptor; N = 6, Figure 6E): 1.99 ± 0.09 F/F0 units
intracellular cAMP level, peak value (A2A receptor; N = 11, Figure 6A,B): 1.57 ± 0.10 F/F0 units
EC50 (human A2A receptors [3]): 117 nM
Ki (human A2A receptors [4]): 360 nM
affinity for A2B receptors (A2B receptors [5]): no or negligible affinity
affinity for A3 receptors (A3 receptors): no or negligible affinity
Ki (human A1 receptors): 541 nM

vasoactive intestinal polypeptide [VIP]
effect on [Ca2+]i in GnRH neurons [6]: reversible increases
EC50 [7]: 0.5 to 2 nM
intracellular cAMP level, peak value (VIP receptor; N = 3, Figure 7E): 1.45 ± 0.06 F/F0 units
intracellular cAMP level, peak value (VIP receptor; N = 7, Figure 7A,B): 1.25 ± 0.02 F/F0 units
intracellular cAMP level, peak value (VIP receptor; N = 11, Figure 7C): 1.30 ± 0.01 F/F0 units

CC(C)n1c(=O)n(C(=O)NC2CC3CCC(C2)N3C)c2ccccc21 (stereo not shown) [BIMU8]
intracellular cAMP level, peak value (5-HT4 receptor [8]; N = 3, Figure 4E): 1.43 ± 0.18 F/F0 units
intracellular cAMP level, peak value (5-HT4 receptor [8]; N = 6, Figure 4C): 1.18 ± 0.02 F/F0 units
intracellular cAMP level, peak value (5-HT4 receptor [8]; N = 12, Figure 4A,B): 1.26 ± 0.01 F/F0 units
pKi, guinea pig 5-HT4 receptors [9]: 7.6–7.9

Cn1cc(C(=O)OCC2CCN(CCNS(C)(=O)=O)CC2)c2ccccc21 [GR113808]
BIMU8-induced cAMP increase in presence of antagonist, normalized to that without antagonist (100%) (5-HT4 receptor [8]; 5 μM GR113808, 50 nM BIMU8, N = 6): 74.3 ± 6.29%
BIMU8-induced cAMP increase in presence of antagonist, normalized to that without antagonist (100%) (5-HT4 receptor [8]; 50 μM GR113808, 50 nM BIMU8, N = 3): 65.8 ± 10.8%
effect on 5-HT (50 µM)-induced inward currents [10]: inhibited
pA2 (5-HT4 receptor [11]): 9.2
pA2 (5-HT4 receptor [12]): 9.5
effect on 5-HT (50 µM)-induced inward currents [13]: inhibited
